Experimental data taken from US20240165173A1, “METHOD OF REDUCING URIC ACID BY USING LACTOBACILLUS PARACASEI LT12” (priority 2022, published 2024).
Values joined by “and” are separate entries in the source; they are usually repeats but may differ in a detail not shown here. Identical values can stand only once.

Legend:
[1] = tested on: xanthine oxidase (XOD); format: in vivo, ICR mice; details: mice of the high uric acid model, after interference
Method: Tested animals are 5-week old male ICR mice purchased from Shanghai JSJ Laboratory Animal Co., Ltd., SPF grade. All mice were grown under the conditions of a temperature of 24±2° C., alternating 12 h light and 12 h dark, and free feeding and drinking for adaptation. After 1 week of adaptation, mice were randomly grouped into 10 groups, 7 mice in one group. […] Modeling period is two weeks and interfering period is four weeks. During modeling, except for the normal control group, the other groups were subjected to gavage with 300 mg/kg potassium oxonate and hypoxanthine (formulated into a suspension using 0.5% CMC-Na solution) every day for high uric acid modeling. During interference, except for the normal control group, the other groups were subjected to gavage with 300 mg/kg potassium oxonate and hypoxanthine every day for continued modeling. 2 h after modeling, each group of mice were administered at the dose according to FIG. 2. The drug samples for each group were dissolved in saline. […]
The levels of uric acid, creatinine, blood urea nitrogen, lactate dehydrogenase, xanthine oxidase (XOD), oxidative stress levels (glutathione (GSH), superoxide dismutase (SOD), glutathione peroxidase (GSH-Px), malondialdehyde (MDA), inflammatory factors (TNF-alpha, IL-1β, and IL-6)) were detected according to the detection method described in the specification in the kits. […]

[2] = tested on: high uric acid mice model (potassium oxonate and hypoxanthine)
Method: (§1) Tested animals are 5-week old male ICR mice purchased from Shanghai JSJ Laboratory Animal Co., Ltd., SPF grade. All mice were grown under the conditions of a temperature of 24±2° C., alternating 12 h light and 12 h dark, and free feeding and drinking for adaptation. After 1 week of adaptation, mice were randomly grouped into […], 7 mice in one group. The groups are normal control group, model group, positive control group, low dose Lactobacillus paracasei LT12 group, and high dose Lactobacillus paracasei LT12 group (see Table 3). Modeling period is two weeks and interfering period is four weeks. During modeling, except for the normal control group, the other groups were subjected to gavage with 300 mg/kg potassium oxonate and hypoxanthine (formulated into a suspension using 0.5% CMC-Na solution) every day for high uric acid modeling. During interference, except for the normal control group, the other groups were subjected to gavage with 300 mg/kg potassium oxonate and hypoxanthine every day for continued modeling. 2 h after modeling, each group of mice were administered at the dose according to FIG. 2. The drug samples for each group were dissolved in saline. The same amount of saline was administered to normal groups and model group.
(§2) During modeling, blood was collected through cutting the tail to detect changes in serum uric acid every week. At the last two days of the experiment, fresh feces of mice of each group were collected and kept in −20° C. refrigerator. Before sacrifice, mice were fasted for 12 h. The last modeling was conducted. Blood was collected 1 h after modeling followed by sacrifice and dissection. Mice whole blood is placed at 4° C. for 2 h followed by centrifugation at 3000 rpm for 10 min. The serum was aliquoted and stored in −80° C. refrigerator. Mice liver, kidneys, and colon were collected. One of the kidneys was preserved in 4% […] for pathological analysis. Other tissue samples were immediately freezed in liquid nitrogen and stored at −80 ° C. for preservation.
(§3) The levels of uric acid, creatinine, blood urea nitrogen, lactate dehydrogenase, xanthine oxidase (XOD), oxidative stress levels (glutathione (GSH), superoxide dismutase (SOD), glutathione peroxidase (GSH-Px), malondialdehyde (MDA), inflammatory factors (TNF-alpha, IL-1β, and IL-6)) were detected according to the detection method described in the specification in the kits. Pathological analysis on renal tissue were completed in corporation with Wuhan Servicebio Technology Co., Ltd., China. Immunoblotting analysis on renal uric acid transporter proteins were conducted according to internal methods in labs.

[3] = tested on: high uric acid mice model (potassium oxonate and hypoxanthine); format: in vivo, ICR mice; parameters: inflammatory cell infiltration (pathological score) / renal tubules hydropic degeneration (pathological score) / renal tubules atrophy (pathological score) / renal tubules dilation (pathological score) / connective tissue proliferation (pathological score) / Protein cast (pathological score): scale not given here
Method: as §1, §2, §3

[4] = after interference for four weeks, gavage, compared with model and normal group
[5] = Positive group, score per mouse 3-1 to 3-7

## Oc1ncnc2[nH]ncc12 [allopurinol]
[1]
  activities of xanthine oxidase in serum and liver: the lowest
[2]; [4]
  blood urea nitrogen levels: increased
  serum creatinine levels: increased
  serum uric acid levels: reduced to the levels of the normal group
[2]; mouse, in vivo
  renal toxicity: strong renal toxicity was generated
[3]; [5]
  Protein cast (pathological score): 1 and 0 (6×)
  connective tissue proliferation (pathological score): 0 (5×) and 1 (2×)
  inflammatory cell infiltration (pathological score): 0 (2×) and 1 (5×)
  renal tubules atrophy (pathological score): 0 (5×) and 1 (2×)
  renal tubules dilation (pathological score): 0 (3×) and 1 (4×)
  renal tubules hydropic degeneration (pathological score): 1 (4×) and 0 and 2 (2×)
[3]; Positive group, sum over 7 mice
  Total score (pathological scores of mice kidneys): 22
[3]; pathological analysis, high uric acid mice
  damages in renal tissues: severe renal damages were caused
